Laboratory results reported in patent publication US20210308196A1, “COMPOSITIONS AND METHODS TO PROMOTE HOST DEFENSE AND STIMULATE, EXPAND, AND/OR RESET T CELL REPERTOIRES” (EVOLVE BIOSYSTEMS, INC., priority 2018, published 2021).

Experiments:
[1] = test system: TLR2, TLR4, TNF and COX-2; assay: qPCR of inflammatory markers in sloughed off intestinal epithelial cells; format: in vivo, human; conditions: treatment group
Description: Expression of inflammatory markers including Toll like receptor (TLR) 2 and TLR4, COX-2 and TNF in intestinal epithelial cells: Previous data has implemented TLR2 in controlling mucosal inflammation by regulating intestinal epithelial barrier function. Further, a significant TLR4-dependent increase in Cox-2 expression has been shown in intestinal epithelial cells post exposure to lipopolysaccharide. TNF-α, a cytokine that plays a key role in mucosal inflammation, is readily detectable at the expression and protein levels in children who have various intestinal pathologies.

peanut extract allergy = assay: Reversal of murine peanut allergy; format: in vivo, mouse; conditions: previously sensitized animals, compared to control mice
Procedure: Germ-free pups are weaned 3 weeks after birth and put on a polysaccharide-free diet. Mice are gavaged with a dysbiotic microbiome of Example 3 at Day 1. Mice receive intragastric gavage of peanut extract on day 1 and day 7 at 5 mg/mouse and then 25 mg/mouse at week 5 with 10 μg of Cholera toxin. Elicitation of reaction is performed at eight to ten weeks using intragastric gavage of 10 mg/mouse food antigen (e.g., peanut extract) with vehicle (PBS). At 10 weeks, mice of the test group are fed B. infantis, while control mice receive vehicle gavage only. All mice have access ad labium to LNnT-infused drinking water for a period of 21 days. The mice are re-challenged with the food antigen via intragastric gavage of 10 mg/mouse peanut extract with vehicle (PBS). Anaphylaxis symptoms are evaluated, and then mice are necropsied. Plasma samples are collected for evaluation of histamine and IgE concentrations. White blood cells are isolated for PBMC characterization and evaluation of regulatory T cell population expansion using flow cytometry specific for CD4, CD25, Foxp3, Helios, Neuropilin, CD8, CD44, CD62L, IFNgamma, IL-17.

TNF = assay: Fecal TNF expression; format: in vivo, human; conditions: treatment group
[2] = Nutritional intervention study on autoimmune/allergic disease (T1D) in breastfed infants; format: in vivo, human; conditions: colonized infants
Description: Administration of activated B. infantis to breastfed neonates and infants leads consistently to high levels of B. infantis in the stool.
This is a randomized, double-blinded, placebo-controlled, parallel group study design (See FIG. 15). After the parent/guardian(s) sign the informed consent, infants will be screened for all the eligibility criteria, and if found eligible will be enrolled in the study. Eligible infants must first undergo an HLA genotyping from a cord blood sample collected at birth. Based on their HLA genotype they will be either placed in group 1 (low risk by HLA genotyping) and group 2 (high risk by HLA genotype). Each group will be randomly assigned to the placebo or treatment groups. […] Parent/guardian(s) of the infants will be instructed to maintain breastfeeding (at least 1 feed/day) for at least 6 months, and up to 12 months if possible during the treatment period. Following the 12-month treatment period, individuals will be followed at regular intervals with study visits and assessments. Individuals will be followed until a sufficient number of events (seroconversion to multiple (2) islet autoantibodies) are accumulated to achieve the planned power for the final analysis. […]

[3] = Prevention and/or treatment of severe acute malnutrition (SAM) in infants; format: in vivo, human; conditions: 28 days
peanut allergy = assay: Prevention of human peanut allergy in infants; format: in vivo; conditions: high-level colonization vs control group with low-level colonization
Procedure: Infants 2-4 months of age at risk of allergy are recruited and their stool is screened for their Bifidobacterium infantis status (Bifidobacterium infantis abundance). The infants are divided into 2 groups: high Bifidobacterium (desirable infant gut microbiome) and low Bifidobacterium (dysbiotic infant gut microbiome). Low Bifidobacterium stool samples are determined to be low Bifidobacterium or dysbiotic, if their levels of Bifidobacterium are less than a threshold of 10^8 CFU/ug DNA and/or Bifidobacteriaceae family is less than 35% of the total infant gut microbiome as measured by a next generation sequencing, such as 16S RNA sequence. Conversely, a high Bifidobacterium sample or desirable infant gut microbiome has a threshold of 10^8 CFU/ug DNA or greater and/or Bifidobacteriaceae family is greater than 35% of the total infant gut microbiome. Once the infants are screened, the dysbiotic group is randomized into a placebo arm or a supplemented arm receiving activated B. infantis, LNnT and retinol. Infants are fed the supplement or placebo for 16 weeks. At 12 weeks, peanut extract is introduced to the diet for 3 days to infants who are at least 4 months old. Blood samples are taken at 12 weeks, 16 weeks, 20 weeks, 24 weeks, 36 weeks, 40 weeks to analyze TReg cells and IgE. At 9 months, the infants are brought in for a peanut challenge. The incident of allergy between groups is analyzed.

[4] = test system: vaccine specific antibodies; assay: Vaccine-specific antibodies in infant stool; format: in vivo, human
Description: Infants from Example 1 received vaccines per the standard schedule. Standard schedule is expected to look like this, as per the CDC (other nations have slightly different schedules; however, the repeated doses over the first year of life is common).
Stool samples were collected at 10 and 12 months for vaccine quantification to coincide with an appropriate post-vaccine time point, and to allow the expansion of vaccine-specific antibodies concentrations to plateau after primary, secondary or tertiary doses [Wright et al. (2014) Journal of Infectious Diseases:209 pg 1628-1634; Brown et al. (2012) J Immunol Methods: 386(1-2): 117-12].
Evaluation of stool for antigen specific responses in infants colonized with B. infantis EVC001. Biophysical antibody profiling assays are performed to assess the Fv and Fc characteristics of vaccine-elicited antibodies raised in infants with and without B. infantis colonization. Presence and phenotype of antibodies in test samples are assessed by staining of bead-bound antibodies with PE-conjugated detection reagents (Anti-IgG, Anti-IgA, and potentially Anti-IgE) and detection via flow cytometry. For the assay, 100 μL each of prepared stool samples from 34 subjects (2 timepoints, up to 62 samples total) that received either received EVC001 or are part of the control group.

For “Bifidobacterium longum subsp. infantis EVC001 [B. infantis EVC001]”, the “Expression of TLR2, TLR4, TNF and COX-2” value [1] was “significantly reduced”, the “Inflammatory responses to the food antigen” value (peanut extract allergy) was “reduces” and the “Fecal TNF expression” value (TNF) was “significantly reduced”. The “Rates of childhood-onset autoimmune and allergic disease” value [2] was “decreases”, the TReg cell numbers [2] was “increases” and the “Incidence of symptoms of acute malnutrition” value [3] was “lower”. The TReg cells [3] was “expansion”, the Weight gain [3] was “better” and the “B cell and plasma cell profiles, vaccine responses” value ([3]; children with SAM / hospitalized infants) was “improved”. For the same substance, the “Inflammatory responses to the food antigen” value (peanut allergy) was “reduces”, the Vaccine response ([4]; infants persistently colonized for at least the first 100 days of life vs infants without colonization) was “stronger vaccine response” and the “Vaccine specific antibodies in stool” value ([4]; stool collected at 10 and 12 months, treatment group) was “significant elevation”.
